Laboratory results taken from patent publication EP0538689A1, “Substituted 2,3-dihydropyrans, method for their preparation and their use as medicaments” (BAYER AG, priority 1991, dated 1993).
Where a name gives a salt, the structure may show the parent alone.

System: C. albicans
Assay: Mouse candidosis model, antimycotic in vivo efficacy
Design: species or system Männliche CF₁-SPF-Mäuse
Conditions: mice infected i.v. with 1-3 x 10⁶ Sprosszellen von C. albicans, surviving/total animals
Procedure: Die erfindungsgemäßen Verbindungen wurden in den Applikationsarten i.v., s.c. und orale Gabe am Modell der Mäuse-Candidose auf ihre antimykotische in vivo-Wirksamkeit geprüft: Männliche CF₁-SPF-Mäuse wurden mit 1-3 x 10⁶ Sprosszellen von C. albicans pro Tier durch Injektion der Keimsuspension in phys. NaCl-Lösung (0,2 ml/Tier) in die Schwanzvene infiziert. Nicht behandelte Kontrolltiere entwickeln unter diesen Infektionsbedingungen eine Nierencandidose und sterben zu 95-100% der eingesetzten Tiere innerhalb 6 Tagen p.i. an dieser Infektion. Wurden infizierte Tiere täglich 2 mal, beginnend mit dem Tag der Infektion, mit den erfindungsgemäßen Verbindungen oral oder parenteral in Dosen 2 x 25 bis 2 x 50 mg/kg Körpergewicht über 2 - 5 Tage behandelt, so überleben 60-90% der Tiere die Infektion in gutem Zustand. Die C.albicans-Keimzahlen in den Nieren der infizierten und behandelten Tiere liegen am 4. Tag p.i. durchschnittlich um 2 Zehnerpotenzen unter denen von unbehandelten, infizierten Kontrolltieren. Tabelle A

Compound | Zahl der überl. Tiere (Dosis 2 × 25 mg/kg/d, App. sc) | Zahl der überl. Tiere (Dosis 2 × 50 mg/kg/d, App. po)
N[C@H]1C=CCO[C@H]1C(=O)O [Beispiel 17, (2R,3S)-3-Amino-2,3-dihydro-6H-pyran-2-carbonsäure-hydrochlorid] | 3/10 | –
COC(=O)[C@H]1OCC=C[C@H]1NC(=O)OC(C)(C)C [Beispiel VII] | – | 8/10
COC(=O)[C@H]1OCC=C[C@H]1N [Beispiel 1, (2S,3R)-3-Amino-2,3-dihydro-6H-pyran-2-carbonsäuremethylester Hydrochlorid] | – | 7/10
